The conditions of data set [1]: 10 mg-eq/kg oral gavage to rats; cited from earlier work.
The conditions of data set [2]: cited from earlier work; for bioavailability: species not stated.
The target in data set [3] is T1, hPEPT1 (Homo sapiens, UniProt P46059).
T1 sequence (P46059 1-708): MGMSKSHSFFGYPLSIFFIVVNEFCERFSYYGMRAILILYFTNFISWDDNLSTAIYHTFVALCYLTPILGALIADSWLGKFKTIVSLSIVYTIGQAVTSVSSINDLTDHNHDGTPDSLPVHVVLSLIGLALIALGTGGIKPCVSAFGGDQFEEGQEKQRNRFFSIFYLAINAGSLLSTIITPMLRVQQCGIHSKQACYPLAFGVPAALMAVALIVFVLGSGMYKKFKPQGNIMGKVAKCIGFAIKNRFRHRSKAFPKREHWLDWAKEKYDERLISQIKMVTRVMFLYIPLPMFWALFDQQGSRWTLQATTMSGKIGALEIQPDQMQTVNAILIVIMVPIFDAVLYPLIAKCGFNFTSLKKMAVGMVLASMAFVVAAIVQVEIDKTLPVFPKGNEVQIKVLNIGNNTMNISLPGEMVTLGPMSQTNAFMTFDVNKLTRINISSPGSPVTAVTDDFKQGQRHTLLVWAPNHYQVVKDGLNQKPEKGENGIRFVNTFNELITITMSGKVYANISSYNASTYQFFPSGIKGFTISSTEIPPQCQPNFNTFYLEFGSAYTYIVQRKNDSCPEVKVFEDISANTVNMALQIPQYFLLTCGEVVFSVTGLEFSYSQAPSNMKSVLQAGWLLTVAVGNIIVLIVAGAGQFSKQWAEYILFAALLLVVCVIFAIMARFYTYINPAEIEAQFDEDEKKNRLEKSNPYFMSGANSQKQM
Kind of data set: [3H]Gly-Sar uptake inhibition in Caco-2 cells. The class given is cell-based. On the procedure: The affinity of zanamivir, GOC, 3-hydroxyphenylglycine (3-HPG) and prodrugs thereof for particular transporters is evaluated using [^3H]Gly-Sar uptake inhibition in Caco-2 cells and in HeLa/hPEPT1 cells. Valacyclovir, a known substrate of hPEPT1, was used as positive control (Table 1). […] The valyl and isoleucyl prodrugs of zanamivir, GOC, and 3-HPG have higher affinity for hPEPT1 than the parent compounds.

The nature of data set [4]: Permeability in rat perfused jejunum. The class given is in vivo. From the text:
Improved permeability of prodrugs Zan-Val, GOC-Val, and 3-HPG-Ile compared to the parent compounds is observed in the rat perfused jejunum, as shown in FIG. 3.

The target in data set [5] is T1, hPEPT1. Kind of data set: [3H]Gly-Sar uptake inhibition in HeLa/hPEPT1 cells. Format: cell-based. On the set-up: expressed in transfected cells; host or cells: HeLa.
Data set [6] is described as follows: Hydrolysis of prodrugs in buffer over pH 1.2-7.4 at 37° C. Format: physicochemical. To be noted: pH range 1.2-7.4, 37° C. How it is done: The hydrolysis of prodrugs of the present invention in buffer was studied over the pH range 1.2-7.4 at 37° C.
Data set [7] can be described thus: AUC and bioavailability of GOC and GOC prodrugs in fasted rats (IV or duodenal injection). To be noted: for AUC0-4 hr, Prodrug / AUC0-4 hr, Total AUC / AUC0-4 hr, GOC / % F: rat. How it is done: 10 mg-eq/kg of GOC or GOC prodrugs were directly injected to duodenum segment of fasted rats. […] Appropriate volume of blood samples was taken from the jugular vein at the predetermined time points.
Rat plasma samples were analyzed for GOC prodrug and GOC using LCMSMS following solid phase extraction sampling preparation. A reverse phase solid-phase cartridge (HLB, 30 mg/1 cc, Waters) was activated with 1.0 mL of methanol and equilibrated with 1.0 mL of water. A 250 ul aliquot of rat plasma was acidified with 250 uL of 1% TFA solution and loaded on to the cartridges. After washing with 1.0 ml water, the compounds are eluted with 1 ml of 2% acetic acid solution. The eluted solvent was evaporated under nitrogen stream in TurboVap and the residue was reconstituted in 250 ul of mobile phase.
Samples were analyzed using a LC/MS/MS system (Micromass Quattro II, HP 1100). The HPLC system consisted of a HP1100 system (Hewlett Packard, CA). 10 ul of sample was separated with a C18 column (2.1×150 mm) using a mobile phase of 10-30% acetonitrile:water containing 0.1% formic acid. Quattro II triple quadrupole mass spectrometer (Micromass, Beverly, Mass.) interfaced with the HPLC via electropray source was used for the mass analysis and detection. The data acquisition software was MassLynx (version 4.0). Calibration curves were constructed by weighted (1/x) least square regression of peak area versus concentrations of the calibration standards.
Bioavailability calculation is based on the AUC0-4 hrs.

A further data set has as its target T2, VACVase (Homo sapiens, UniProt Q86WA6).
T2 sequence (Q86WA6 38-291): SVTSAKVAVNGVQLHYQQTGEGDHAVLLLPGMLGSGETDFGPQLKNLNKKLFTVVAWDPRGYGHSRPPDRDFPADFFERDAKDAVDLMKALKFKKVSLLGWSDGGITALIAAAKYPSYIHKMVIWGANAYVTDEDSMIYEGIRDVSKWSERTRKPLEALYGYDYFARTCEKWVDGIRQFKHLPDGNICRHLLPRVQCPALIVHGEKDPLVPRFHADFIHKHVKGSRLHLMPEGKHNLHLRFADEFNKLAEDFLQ
The data set can be described thus: Hydrolysis of prodrugs by VACVase (Michaelis-Menten kinetics).

The subject of data set [8] is influenza virus neuraminidase. To be noted: read-out: IC50, influenza virus neuraminidase; cited from earlier work.
Substrate in data set [9]: CC(C)[C@H](N)C(=O)OCCOCn1cnc2c(=O)[nH]c(N)nc21
The data set can be described thus: purified protein, by the assay type. The settings on record: 25.0 °C.

Where [10] appears, read: HeLa/hPEPT1 cells, mean ± sd, n = 2, read-out: IC50 of [3H]Gly-Sar uptake inhibition.
The mark [11] stands for this setting: duodenal administration (OGI) 10 mg-eq/kg.

Like-named read-outs stand apart in the source and are kept apart here.

On to `CCOC(=O)C1=C[C@@H](OC(CC)CC)[C@H](NC(C)=O)[C@@H](N)C1` [GS4104, oseltamivir], for which, in [1], the “% F” value is 35% and the Cmax (commonly the maximum level reached in the sampled fluid or tissue) is listed as 47 ng/mL. For the same molecule, the oral bioavailability in [2] (in rats, mice, dogs and ferrets) is reported as 11-73%.
For `NC(C(=O)O)c1cccc(O)c1` (stereo not shown) [3-HPG, 3-hydroxyphenylglycine], the “affinity for the transporter” value at hPEPT1 [3] and on hPEPT1 [5] (HeLa/hPEPT1 cells) was “poor affinity” throughout. For the same molecule, the “jejunal permeability” value in data set [4] was “very low, essentially zero permeability”. Also, the IC50 (commonly the concentration needed to halve the response being measured) at hPEPT1 [5] (setting [10]) is over 5 mM.
Turning to `CCC(CC)O[C@@H]1C=C(C(=O)OC(C)OC(=O)[C@@H](N)[C@@H](C)CC)C[C@H](NC(=N)N)[C@H]1NC(C)=O` (stereo partly shown) [GOC-Ile, isoleucine ethoxyester of guanidine oseltamivir], the “hydrolysis behaviour in buffer” value in [6] is “pH dependent hydrolysis”. On hPEPT1 [5] (setting [10]), the IC50 came out at 0.45 ± 0.18 mM.
For `CC(=O)N[C@H]1[C@H]([C@H](O)[C@H](O)CO)OC(C(=O)O)=C[C@@H]1N=C(N)N` [Zanamivir, zanamivir], in data set [1], the “% F” value is recorded as 3.7% and the Cmax was 60 ng/mL. Besides, on hPEPT1 [3], the “affinity for the transporter” value is recorded as “poor affinity”. For the same molecule, the “jejunal permeability” value in [4] was “very low, essentially zero permeability”. The “affinity for the transporter” value on hPEPT1 [5] (HeLa/hPEPT1 cells) is listed as “poor affinity”. In addition, at hPEPT1 [5] (setting [10]), the IC50 is over 30 mM. Further, the absolute oral availability in data set [2] (in vivo, po) was about 2%.
Regarding `CCC(CC)O[C@@H]1C=C(C(=O)OCC(C)OC(=O)[C@@H](N)C(C)C)C[C@H](NC(=N)N)[C@H]1NC(C)=O` (stereo partly drawn) [GOC PG L-Val], in [7] (setting [11]), the “AUC0-4 hr, Prodrug” value is given as 17 ± 12 (ng/mL) · hrs and the “AUC0-4 hr, Total AUC” value is on record as 116 ± 61 (ng/mL) · hrs.
`CCOC(=O)C1=C[C@@H](OC(CC)CC)[C@H](NC(C)=O)[C@@H](NC(=N)N)C1` [GS4109]: the Cmax in [1] is 30 ng/mL. Moreover, the bioavailability (usually the share of a dose that reaches the circulation, judged against a reference dose that is usually intravenous) in data set [2] is reported as “approximately 2%”.
In the case of `CCC(CC)O[C@@H]1C=C(C(=O)O)C[C@H](N)[C@H]1NC(C)=O` [GS4071, oseltamivir carboxylate], in data set [1], the Cmax is 30 ng/mL. Besides, in data set [2], the bioavailability is about 4.0%.
Regarding `CCC(CC)[C@H](NC(C)=O)[C@@H]1[C@H](O)[C@@H](C(=O)O)C[C@H]1N=C(N)N` [peramivir], the oral bioavailability in [2] (peramivir, clinical trials context) is given as at most 3%.
With `CC[C@H](C)[C@H](N)C(=O)OC(C)OC(=O)C1=C[C@H](NC(=N)N)[C@@H](NC(C)=O)[C@H]([C@H](O)[C@H](O)CO)O1` (stereo partly shown) [Zan-Ile, zanamivir ethoxyisoleucine ester], on hPEPT1 [5] (setting [10]), the IC50 is 3.04 ± 0.8 mM.
In the case of `CC(=O)N[C@H]1[C@H]([C@H](O)[C@H](O)CO)OC(C(=O)OC(C)OC(=O)[C@@H](N)C(C)C)=C[C@@H]1NC(=N)N` (stereo partly shown) [Zan-Val, valine ethoxyester of zanamivir], on VACVase (hydrolysis by VACVase, 25° C.), the Kcat is 21.2 s⁻¹; the Km (in general, the concentration of substrate that gives half-maximal velocity) is 1.55 mM; the Vmax is given as 47.2 nmol/min/μg of VACVase. Moreover, the “hydrolysis behaviour in buffer” value in data set [6] is “pH dependent hydrolysis”. Also, the “jejunal permeability” value in data set [4] was “high permeability, higher than that of metoprolol”. Besides, the IC50 on hPEPT1 [5] (setting [10]) worked out at 1.95 ± 0.19 mM.
For `CCC(CC)O[C@@H]1C=C(C(=O)OCCNC(=O)[C@@H](N)C(C)C)C[C@H](NC(=N)N)[C@H]1NC(C)=O` [GOC GlyOH L-Val], in [7] (rat plasma, OGI 10 mg-eq/kg), the “species found in plasma after dosing” value is recorded as “Only a trace amount of GOC is detected in the plasma”. Also, in data set [7] (setting [11]), the “AUC0-4 hr, Prodrug” value is reported as 386 ± 406 (ng/mL) · hrs and the “AUC0-4 hr, Total AUC” value was 401 ± 419 (ng/mL) · hrs.
Consider `CCC(CC)O[C@@H]1C=C(C(=O)O)C[C@H](NC(=N)N)[C@H]1NC(C)=O` [GOC, guanidino oseltamivir carboxylate], for which the “% F” value in [1] was 4.0%; in [7] (IV injection 1 mg/kg (reference)), 100.0%; in [7] (duodenal administration (OGI) 10 mg-eq/kg, based on AUC0-4 hrs), 4.6%. Moreover, the Cmax in data set [1] was 60 ng/mL. Besides, the figures for the IC50 (in [8]; on hPEPT1 [5] (setting [10])) were 0.9 nM and 6.6 ± 3.9 mM, respectively. For the same molecule, the “affinity for the transporter” value on hPEPT1 [3] and on hPEPT1 [5] (HeLa/hPEPT1 cells) was “poor affinity” each time. Moreover, the “jejunal permeability” value in data set [4] was “very low, essentially zero permeability”. Besides, in [2], the bioavailability was about 4.0%. The “AUC0-4 hr, GOC” value in data set [7] (IV injection 1 mg/kg) is listed as 385 ± 167 (ng/mL) · hrs; in data set [7] (setting [11]) it was 265 ± 91 (ng/mL) · hrs. Besides, the “AUC0-4 hr, Total AUC” value in data set [7] (IV injection 1 mg/kg) is 385 ± 167 (ng/mL) · hrs; in data set [7] (setting [11]), 265 ± 91 (ng/mL) · hrs.
Regarding `CCC(CC)O[C@@H]1C=C(C(=O)OC(C)OC(=O)[C@@H](N)C(C)C)C[C@H](NC(=N)N)[C@H]1NC(C)=O` (stereo partly shown) [GOC-Val, valine ethoxyester of guanidine oseltamivir], on VACVase (hydrolysis by VACVase, 25° C.), the Kcat amounted to 8.7 s⁻¹, the Km amounted to 2.37 mM and the Vmax is 19.4 nmol/min/μg of VACVase. Also, the “hydrolysis behaviour in buffer” value in [6] is “pH dependent hydrolysis”. The “jejunal permeability” value in data set [4] is reported as “high permeability, higher than that of metoprolol”. For the same molecule, the IC50 at hPEPT1 [5] (setting [10]) was 0.19 ± 0.01 mM.
With `CC(C)[C@H](N)C(=O)OCCOCn1cnc2c(=O)[nH]c(N)nc21` [Valcyclovir, Valacyclovir], the Vmax at VACVase is 280 nmol/min/μg of VACVase. At hPEPT1 [5], this molecule had a 50% inhibitory concentration (IC50) of 1.88 ± 0.51 mM.

B1: VACVase (Homo sapiens) (protein)
chain: T2 sequence (Q86WA6 38-291)
Turning to B1, in data set [9], the Km was found to be 0.59 mM; the kcat – broadly, the number of substrate molecules converted per active site and unit of time at saturation – is 126 s⁻¹; the kcat/Km (in general, the second-order rate constant that governs catalysis at low substrate concentration) was determined as 213000 M⁻¹ s⁻¹.

The values are drawn from patent publication US9181281B2, “Prodrugs of neuraminidase inhibitors” (priority 2008, dated 2015).
